Source: PMC4158172 (European Journal of Clinical Pharmacology, 2014)
Read-outs that look alike come from different tables or passages of the source.

How the values were obtained:
[1] = with TPV/r; cited from earlier work
[2] = EFV plasma pharmacokinetics when co-administered with DTG, by CYP2B6 genotype; conditions: for AUC / Cmax / concentration at 24 h / Tmax / half-life: human; for AUC: AUC(0–τ); for Cmax: C max; for concentration at 24 h: C τ; for Tmax: T max; for half-life: t½
Description: This was a phase I, open-label, single-sequence, two-period, steady-state study. Subjects received DTG at a dose of 50 mg (two 25 mg tablets) every 24 hours (q24h) for 5 days (period 1), and then the combination of morning DTG 50 mg and evening EFV 600 mg q24h was given for 14 days (period 2). There was no washout between treatment periods. All doses were administered in the fasting state. Serial PK plasma samples were collected after each period for DTG, and samples after period 2 were also collected for EFV. The metabolic profile of DTG was evaluated in plasma and urine using pooled samples for each subject to assist in establishing the mechanism of any potential drug interaction (see Supplementary Material).
Dolutegravir and EFV were measured in plasma samples using validated methods, which consisted of extraction from plasma by protein precipitation with acetonitrile containing [^15N^2H7]dolutegravir or [^2H4]-efavirenz as the internal standards, respectively. The plasma extracts were injected onto a 2.1 × 50 mm 3.5-micron XBridge™ C18 column (Waters Associates, Milford, MA, USA). Dolutegravir was eluted with a mobile phase consisting of 40 % acetonitrile in aqueous 0.1 % formic acid, and EFV was eluted with a mobile phase consisting of acetonitrile/0.1 % formic acid (65 % v/v) in a 5-mM ammonium acetate buffer containing 0.1 % acetic acid (35 % v/v). The eluates were detected by using a Sciex API 4000™ (AB Sciex, Framingham, MA, USA) equipped with a TurboIonSpray® ionisation source with multiple reaction monitoring (DTG positive ion mode m/z 420 > 277; internal standard m/z 428 > 277; EFV negative ion mode m/z 314 > 243; internal standard m/z 318 > 247). Data acquisition and processing were performed with Analyst 1.4.2 software (AB Sciex), and linear regression analysis calculations were performed using the Study Management System, SMS™ 2000 v.2.2 (GlaxoSmithKline, Research Triangle Park, NC, USA). The calibration range for DTG was 0.020 to 20 μg/mL and for EFV was 0.10 to 20 μg/mL. Quality control samples prepared separately at three concentrations were stored with study samples and analysed with each batch of samples against separately prepared calibration standards.
A non-compartmental PK analysis of the concentration-time data was performed with WinNonlin (version 5.2, Pharsight Corporation, Mountain View, CA, USA). Plasma PK parameters for both DTG and EFV were calculated using actual recorded times for each treatment. Parameters that were determined included AUC from time zero to the end of the dosage interval (AUC(0–τ)), maximum observed plasma concentration (C max), the time of maximum observed plasma concentration (T max) and plasma concentration at the end of the dosing interval (C τ).
A blood sample was taken from 9 of 12 subjects in the EFV study who gave consent for pharmacogenetic analysis, and genomic DNA was extracted. Twenty-three polymorphisms from five genes/gene regions previously implicated in EFV metabolism were genotyped (Table 1). Only polymorphisms possibly conferring reduced enzyme activity were investigated. Due to the small number of samples available, no statistical modelling was planned or performed. However, the probabilities for each possible experimental outcome, based on the distribution of polymorphism carrier status between cases and controls and an assumption of no genetic association, were calculated a priori.

[3] = EFV product label, cited from earlier work
[4] = Safety evaluations, interaction study with TPV/r; format: in vivo, human
Description: In both studies, safety evaluations [adverse event (AE) reporting, clinical chemistry laboratory tests, urinalysis, vital signs and electrocardiogram] were performed throughout the study. Given the known hepatotoxicity profile of TPV/r, more frequent monitoring of liver chemistries was performed in the TPV/r study, and conservative stopping criteria were employed such that any subject reaching a grade 2 increase in alanine aminotransferase (ALT) or aspartate aminotransferase (AST) was discontinued from the trial. Both trials were conducted as inpatient studies with subjects housed in the unit for the duration of the study. The studies were conducted in accordance with the principles of the Declaration of Helsinki. A written informed consent was obtained from all subjects, and both protocols were approved by the institutional review board of the study sites.

CYP3A4/5 = conditions: in vivo, cited from earlier work
[5] = in vivo; cited from earlier work
[6] = Plasma metabolic profile of DTG (pooled plasma); format: in vivo, human; conditions: pooled plasma, both treatment groups
Description: (§1) There was no washout between treatment periods. All doses were administered in the fasting state.
(§2) Urine samples were collected at intervals of 0 to 12 hours and 12 to 24 hours after each treatment period. Individual urine pools were produced for each subject in a given treatment group by combining proportional volumes (% of total volume) from the 0- to 12-hours and 12- to 24-hours collections. Individual pooled human plasma samples were prepared for each subject and treatment group.
Each pooled plasma sample was mixed with aqueous EDTA disodium salt solution (10 mg/mL) and subsequently extracted 3 times with methanol and acetonitrile. Pooled urine samples were lyophilised and the residue was reconstituted in water:methanol (90:10 v/v). Drug-related components in plasma extracts and urine samples were separated on a 100 × 4.6 mm 3.5-micron Symmetry C18 column (Waters Associates) at 40°C by a step-gradient elution method with a mobile phase composition of water:acetonitrile containing 0.1% ammonium acetate starting at 95:5 (v/v) and ending at 5:95 (v/v) over 50 minutes. The eluate was analysed by multistage mass spectrometry (MSn) using an LTQ Orbitrap™ Hybrid Mass Spectrometer with Xcalibur 2.07 software (Thermo Fisher Scientific, Bremen, Germany). […]

[7] = Urinary metabolic profile of DTG (pooled urine); format: in vivo, human; conditions: pooled urine 0-24 h, n=12, mean (standard deviation)
Description: as §1, §2
Each pooled plasma sample was mixed with aqueous EDTA disodium salt solution (10 mg/mL) and subsequently extracted 3 times with methanol and acetonitrile. Pooled urine samples were lyophilised and the residue was reconstituted in water:methanol (90:10 v/v). Drug-related components in plasma extracts and urine samples were separated on a 100 × 4.6 mm 3.5-micron Symmetry C18 column (Waters Associates) at 40°C by a step-gradient elution method with a mobile phase composition of water:acetonitrile containing 0.1% ammonium acetate starting at 95:5 (v/v) and ending at 5:95 (v/v) over 50 minutes. The eluate was analysed by multistage mass spectrometry (MSn) using an LTQ Orbitrap™ Hybrid Mass Spectrometer with Xcalibur 2.07 software (Thermo Fisher Scientific, Bremen, Germany). Data-dependent scanning using an accurate mass list, consisting of all previously characterised metabolites, was used in addition to analysis of pre-dose samples to aid in the distinction of drug-related material from endogenous components.

[8] = design: method as in PMID 18769354; conditions: EVG 200 mg once daily with TPV/r 500/200 mg twice daily, healthy subjects; cited from earlier work
[9] = in vivo, EFV with DTG, CYP2B6*1/*1 or *1/*6 subjects n=6, geometric mean (CV%)
[10] = in vivo, EFV with DTG, CYP2B6*6/*6 subjects n=3, geometric mean (CV%)
[11] = in vivo, EFV with DTG, all subjects n=12, geometric mean (CV%)

Cc1nnc(C(=O)NC(C)(C)c2nc(C(=O)NCc3ccc(F)cc3)c(O)c(=O)n2C)o1 [RAL, raltegravir]
decrease of AUC(0–12) [1]: 24%

O=C1Nc2ccc(Cl)cc2[C@@](C#CC2CC2)(C(F)(F)F)O1 [EFV, efavirenz]
C τ ([2]; EFV with DTG, CYP2B6*1/*1 or *1/*6 subjects n=6, geometric mean (CV%)): 1.45 (40) μg/mL
AUC [2, 9]: 55700 ng·h/mL
AUC [2, 10]: 174000 ng·h/mL
AUC [2, 11]: 84200 ng·h/mL
Cmax ([2]; in vivo, EFV 600 mg q24h with DTG 50 mg, all subjects n=12, geometric mean (CV%)): 6020 ng/mL
Cmax [2, 9]: 4520 ng/mL
Cmax [2, 10]: 9500 ng/mL
concentration at 24 h [2, 10]: 5850 ng/mL
concentration at 24 h [2, 11]: 2410 ng/mL
Tmax ([2]; in vivo, EFV with DTG, CYP2B6*1/*1 or *1/*6 subjects n=6, median (range)): 2.5 h
Tmax ([2]; in vivo, EFV with DTG, CYP2B6*6/*6 subjects n=3, median (range)): 2 h
Tmax ([2]; in vivo, EFV with DTG, all subjects n=12, median (range)): 2.5 h
half-life [2, 9]: 15.6 h
half-life [2, 10]: 39.1 h
half-life [2, 11]: 22.2 h
EFV exposures in CYP2B6*6 homozygous subjects relative to CYP2B6*1/*1 or *1/*6 carriers ([2]; in vivo): two- to fourfold higher
mean C max [3]: 4070 ng/mL
Cmax ([3]; read-out: mean C max): 12.9 µM

tipranavir/ritonavir [TPV/r]
subjects reporting nausea ([4]; healthy subjects n=18): 22%
subjects reporting vomiting ([4]; healthy subjects n=18): 11%
subjects with grade 2 increases in AST ([4]; n=18, began during TPV/r alone (period 2)): Three
subjects with grade 2 increases in ALT leading to discontinuation ([4]; n=18, began during TPV/r alone (period 2), considered related to TPV/r): Four
effect on CYP3A4/5 (CYP3A4/5; after a single dose): moderately inhibits
effect on CYP3A4/5 (CYP3A4/5; after repeated dosing): induces

CC(C)CN(C[C@@H](O)[C@H](Cc1ccccc1)NC(=O)O[C@H]1CCOC1)S(=O)(=O)c1ccc(N)cc1 [amprenavir]
decrease of Cmin [5]: 56%

CC(C)(C)NC(=O)[C@@H]1C[C@@H]2CCCC[C@@H]2CN1C[C@@H](O)[C@H](Cc1ccccc1)NC(=O)[C@H](CC(N)=O)NC(=O)c1ccc2ccccc2n1 [saquinavir]
decrease of Cmin [5]: 80%

C[C@@H]1CCO[C@H]2Cn3cc(C(=O)NCc4ccc(F)cc4F)c(=O)c(O[C@@H]4O[C@H](C(=O)O)[C@@H](O)[C@H](O)[C@H]4O)c3C(=O)N12 [M2]
amount in plasma relative to DTG (mean) [6]: < 2 % of DTG
% DTG ([7]; DTG 50 mg + EFV q24h): 1,633 (607) %
% Total drug-related response ([7]; DTG 50 mg + EFV q24h): 79.8 (9.3) %
% DTG ([7]; DTG 50 mg q24h): 1,188 (275) %
% Total drug-related response ([7]; DTG 50 mg q24h): 72.8 (10.9) %

COc1cc2c(cc1Cc1cccc(Cl)c1F)c(=O)c(C(=O)O)cn2[C@H](CO)C(C)C [EVG, Elvitegravir]
changes in PK [8]: No significant changes

C[C@@H]1CCO[C@H]2Cn3cc(C(=O)NC(O)c4ccc(F)cc4F)c(=O)c(O)c3C(=O)N12 (stereo partly shown) [M3]
% DTG ([7]; DTG 50 mg + EFV q24h): 38.8 (48.6) %
% Total drug-related response ([7]; DTG 50 mg + EFV q24h): 1.9 (2.4) %
% DTG ([7]; DTG 50 mg q24h): 51.9 (57.3) %
% Total drug-related response ([7]; DTG 50 mg q24h): 2.9 (2.6) %
